Where a name gives a salt, the structure may show the parent alone. Marks after values point to notes of the source that are not given here.
Experiments:
Apelin Receptor (APJ) = molecular target: T1, Apelin Receptor (APJ) (Homo sapiens, UniProt P35414); assay: Activation of Ras in cultured cells overexpressing APJ; format: cell-based; settings: 50 μM peptide, 1 min; 100 nM Pyr-Apelin-13 = positive control
T1 construct: host or cells: CHO-K1 AGTRL1 Gi cells
T1 sequence (P35414 1-380): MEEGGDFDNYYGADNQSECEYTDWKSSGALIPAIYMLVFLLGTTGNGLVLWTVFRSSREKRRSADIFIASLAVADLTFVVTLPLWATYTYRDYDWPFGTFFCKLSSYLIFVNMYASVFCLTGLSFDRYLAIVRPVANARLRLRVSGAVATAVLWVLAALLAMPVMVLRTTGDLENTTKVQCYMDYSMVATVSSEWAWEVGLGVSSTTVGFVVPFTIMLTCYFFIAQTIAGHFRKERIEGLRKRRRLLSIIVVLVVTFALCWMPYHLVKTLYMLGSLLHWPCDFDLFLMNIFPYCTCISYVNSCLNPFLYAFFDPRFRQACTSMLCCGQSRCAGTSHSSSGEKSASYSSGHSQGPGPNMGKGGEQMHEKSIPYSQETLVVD
Description: Peptides were initially prepared as 100× stocks in H2O. […] Following a 1 min incubation, the cells were placed on ice, the supernatant was removed, and washed twice with cold HBSS. The HBSS was removed and the cells were immediately lysed in 150 μl/well of lysis buffer included with Active Ras Detection kit (Cell Signaling Technology; Danvers, Mass.); lysis buffer was supplemented with 1 mM PMSF (Millipore-Sigma; Saint Louis, Mo.) and Halt Protease/Phosphatase Inhibitor Cocktail (Thermo-Fisher; Waltham, Mass.) prior to use. The wells were immediately scraped and lysates transferred to microfuge tubes. The samples were then placed on ice for 10 min. […] Visualization and quantification of Ras recovery (GTP-bound/active Ras) in samples were performed with Azure Biosystems C400 Imager and AzureSpot analysis software (Dublin, Calif.). […] Each data point represents the average of duplicate assays.

[1] = tested on: LPS-induced acute lung injury mouse model; assay: LPS-induced acute lung injury model in mouse (Example 6); format: in vivo, mice; settings: 10 nmol/kg i.p.; for Mean (SEM) Lung Weight: normalized to body weight
Description: The effect of the peptides of the current invention on acute lung injury can be assessed in an LPS-induced acute lung injury mouse model by monitoring outcomes such as lung weight, fluid accumulation, cytokine secretion in blood or bronchoalveolar lavage fluid (BALF), neutrophil infiltration into lung tissues, and assessment of acute lung injury score by histopathology. Acute lung injury was induced in male C57BL/6 mice (6 to 8 weeks old) by intratracheal administration of 40 μL lipopolysaccharide (LPS) (Sigma Aldrich, St. Louis, Mo.) in PBS at 5 mg/kg. Control animals received intratracheal PBS alone. […] Treatments were administered 1 h prior to LPS for animals designated for sacrifice at 4 h after LPS, or at both 1 h prior to and 6 h after LPS for animals designated for sacrifice at 24 h after LPS. At 4 or 24 hours post LPS administration, tissues were harvested. Lungs were weighed, flushed with Hanks Buffer to provide bronchoalveolar lavage fluid (BALF). Lungs were fixed in 10% neutral buffered formalin (NBF) for histopathology. Tissue slides were stained with hematoxylin and eosin (H&E) and evaluated and scored with light microscopy of 5 representative microscopic fields (100× magnification) scoring on a 0-5 scale using standard methods (Matute-Bello G et al 2011. An Official American Thoracic Society Workshop Report: Features and Measurements of Experimental Acute Lung Injury in Animals. Am J Respir Cell Mol Biol 44:725-38). The average score for five fields was calculated for each animal. Levels of pro-inflammatory cytokines in BALF were determined using a meso scale discovery (MSD) system. Data for test peptides were compared to the vehicle control group. Lung weights were normalized to body weight.

[2] = tested on: LPS-induced acute lung tissue damage; settings: animals; Petrescu et al. 2010; cited from earlier work
[3] = tested on: LPS-induced tissue damage in the liver; settings: rats; Zhou et al. 2018; cited from earlier work
[4] = histopathology, 0-5 scale, 24 h after LPS

CSCC[C@H](NC(=O)CNC(=O)[C@H](CCSC)NC(=O)[C@H](CCSC)NC(=O)[C@H](CCCNC(=N)N)NC(=O)[C@@H](N)CCCNC(=N)N)C(=O)N[C@H](C(=O)N[C@@H](Cc1ccccc1)C(=O)N[C@@H](CCC(N)=O)C(=O)N[C@@H](CO)C(=O)N[C@@H](CC(C)C)C(=O)N[C@@H](CS)C(=O)NCC(=O)N[C@H](C)C(=O)O)C(C)C [SEQ ID NO: 15 HCl salt]
GTP-Ras (% of Positive Control) (Apelin Receptor (APJ)): 90.8%

CSCC[C@H](NC(=O)[C@@H]1CCCN1C(=O)CNC(=O)[C@H](CCCCN)NC(=O)[C@H](Cc1c[nH]cn1)NC(=O)[C@H](CO)NC(=O)[C@H](CC(C)C)NC(=O)[C@H](CCCNC(=N)N)NC(=O)[C@@H]1CCCN1C(=O)[C@H](CCCNC(=N)N)NC(=O)[C@@H](N)CCC(N)=O)C(=O)N1CCC[C@H]1C(=O)N[C@@H](Cc1ccccc1)C(=O)O [Apelin-13]
Pro-inflammatory Cytokine Level IFNγ ([1]; BALF, 4 h after LPS): 0.04 pg/mL
Pro-inflammatory Cytokine Level IL-1β ([1]; BALF, 4 h after LPS): 123 pg/mL
Pro-inflammatory Cytokine Level IL-6 ([1]; BALF, 4 h after LPS): 4540 pg/mL
Pro-inflammatory Cytokine Level IL-17-A ([1]; BALF, 4 h after LPS): 0.87 pg/mL
Pro-inflammatory Cytokine Level IL-17-C ([1]; BALF, 4 h after LPS): 1.84 pg/mL
Pro-inflammatory Cytokine Level IL-23 ([1]; BALF, 4 h after LPS): 0.68 pg/mL
Pro-inflammatory Cytokine Level KC/GRO ([1]; BALF, 4 h after LPS): 3210 pg/mL
Pro-inflammatory Cytokine Level TNFα ([1]; BALF, 4 h after LPS): 15500 pg/mL
Mean (SEM) Alveolar Neutrophil Infiltration Score [1, 4]: 1.40 (0.21)
Mean (SEM) Interstitial Neutrophil Infiltration Score [1, 4]: 1.13 (0.11)
Mean (SEM) Composite Lung Injury Score ([1]; histopathology, 24 h after LPS): 2.58 (0.29)
Mean (SEM) Lung Weight ([1]; 4 h after LPS): 1.03 (0.03)** g
Mean (SEM) Lung Weight ([1]; 24 h after LPS): 1.32 (0.03)* g
Pulmonary vascular leakage resulting from LPS-induced acute lung tissue damage (in words) [2]: reduce pulmonary vascular leakage
Tissue damage in the liver induced by LPS (in words) [3]: attenuated tissue damage in the liver

(PEG12)KRRLLGLVFQSLCG(dA) [SEQ ID NO: 37 Acetate salt] (KRRLLGLVFQSLCGA; N-terminal PEG12, C-terminal D-Ala, acetate salt; (1)..(1) PEG12; (15)..(15) D-Ala)
GTP-Ras (% of Positive Control) (Apelin Receptor (APJ)): 79.2%

CSCC[C@H](NC(=O)CNC(=O)[C@H](CCSC)NC(=O)[C@H](CCSC)NC(=O)[C@H](CCCNC(=N)N)NC(=O)[C@@H](N)CCCNC(=N)N)C(=O)N[C@H](C(=O)N[C@@H](Cc1ccccc1)C(=O)N[C@@H](CCC(N)=O)C(=O)N[C@@H](CO)C(=O)N[C@@H](CC(C)C)C(=O)N[C@@H](CS)C(=O)NCC(=O)N[C@H](C)C(=O)O)C(C)C [SEQ ID NO: 15 Acetate salt]
GTP-Ras (% of Positive Control) (Apelin Receptor (APJ)): 64.9%

(PEG12)KRRLLGLVFQSLCG(dA) [SEQ ID NO: 37 HCl salt] (KRRLLGLVFQSLCGA; N-terminal PEG12, C-terminal D-Ala, HCl salt; (1)..(1) PEG12; (15)..(15) D-Ala)
GTP-Ras (% of Positive Control) (Apelin Receptor (APJ)): 33.2%

From patent US20230218710A1, “METHOD OF TREATING CORONAVIRUS INFECTIONS” (priority 2020, published 2023)
